Measured values taken from US20220315578A1, “BRD9 BIFUNCTIONAL DEGRADERS AND THEIR METHODS OF USE” (NOVARTIS AG, priority 2019, published 2022).

Molecular target: T1, BRD9-GFP (Homo sapiens, UniProt Q9H8M2)
T1 construct: CHYSEL (2A cis-acting hydrolase element) remnant after GFP; mCherry is split off as a separate protein (C); expressed in transfected cells; host or cells: HEK293A cells (Invitrogen R70507), lentiviral transduction with pLenti6-BRD9-GFP-CHYSEL-mCherry, blasticidin selection
T1 sequence (Q9H8M2 1-597): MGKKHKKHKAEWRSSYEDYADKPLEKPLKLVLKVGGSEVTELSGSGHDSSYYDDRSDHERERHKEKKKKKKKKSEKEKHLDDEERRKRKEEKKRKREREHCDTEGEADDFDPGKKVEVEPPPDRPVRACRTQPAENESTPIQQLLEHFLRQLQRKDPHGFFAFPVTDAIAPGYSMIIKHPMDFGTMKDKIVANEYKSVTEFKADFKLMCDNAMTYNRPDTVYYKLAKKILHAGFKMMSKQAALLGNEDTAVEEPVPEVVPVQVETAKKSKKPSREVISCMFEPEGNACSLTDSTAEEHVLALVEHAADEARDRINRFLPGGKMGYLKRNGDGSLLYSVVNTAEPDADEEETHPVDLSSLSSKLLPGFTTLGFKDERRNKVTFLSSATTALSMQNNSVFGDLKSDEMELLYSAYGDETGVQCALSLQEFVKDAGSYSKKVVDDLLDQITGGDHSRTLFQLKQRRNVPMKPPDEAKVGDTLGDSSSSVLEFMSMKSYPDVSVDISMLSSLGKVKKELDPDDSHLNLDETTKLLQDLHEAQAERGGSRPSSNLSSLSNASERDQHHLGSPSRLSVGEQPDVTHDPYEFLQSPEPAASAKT
Assay: BRD9-GFP protein abundance flow cytometry assay in HEK293A cells
Type: cell-based
Settings: HEK293A-BRD9-GFP-CHYSEL-mCherry cells; for BRD9 Deg Amax %: 24 h, % protein remaining at the concentration at which maximum degradation is seen; for DC50: 24 h at 37° C., 10-point 1:3 dilution, concentration at which 50% maximal degradation was observed
Summary of the method: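 HEK293A cells stably express bicistronic BRD9-GFP-CHYSEL-mCherry and received 24 h treatment at 37° C with a 10-point, 3-fold dilution series from […], in 0.1% DMSO and duplicate. Median GFP/mCherry ratio of 5,000 single cells by flow cytometry, normalized to mCherry-only cells (0%) and DMSO (100%), gave DC50 and Amax (% protein remaining).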

Compound | BRD9 Deg Amax % [%] | DC50 [nM]
COc1cc(-c2cn(C)c(=O)c3cnccc23)cc(OC)c1CN1CCC(OC2CCN(C(=O)COc3ccc(N4CCC(=O)NC4=O)cc3)CC2)CC1 [Compound A35, 1-(4-(2-(4-((1-(2,6-Dimethoxy-4-(2-methyl-1-oxo-1,2-dihydro-2,7-naphthyridin-4-yl)benzyl)piperidin-4-yl)oxy)piperidin-1-yl)-2-oxoethoxy)phenyl)dihydropyrimidine-2,4(1H,3H)-dione] | 13.19 | 31
COc1cc(-c2cn(C)c(=O)c3cnccc23)cc(OC)c1CN1CCC(OC2CCN(C(=O)c3cccc(N4CCC(=O)NC4=O)c3)CC2)CC1 [Compound A36, 1-(3-(4-((1-(2,6-Dimethoxy-4-(2-methyl-1-oxo-1,2-dihydro-2,7-naphthyridin-4-yl)benzyl)piperidin-4-yl)oxy)piperidine-1-carbonyl)phenyl)dihydropyrimidine-2,4(1H,3H)-dione] | 18.42 | 39
COc1ccc(C(=O)N2CCC(OC3CCN(CCCc4c(OC)cc(-c5cn(C)c(=O)c6cnccc56)cc4OC)CC3)CC2)cc1N1CCC(=O)NC1=O [Compound A37, 1-(5-(4-((1-(3-(2,6-Dimethoxy-4-(2-methyl-1-oxo-1,2-dihydro-2,7-naphthyridin-4-yl)phenyl)propyl)piperidin-4-yl)oxy)piperidine-1-carbonyl)-2-methoxyphenyl)dihydropyrimidine-2,4(1H,3H)-dione] | 13.01 | 2
COc1cc(-c2cn(C)c(=O)c3cnccc23)cc(OC)c1CCN1CCC(OC2CCN(C(=O)c3ccc(Cl)c(N4CCC(=O)NC4=O)c3)CC2)CC1 [Compound A38, 1-(2-Chloro-5-(4-((1-(2,6-dimethoxy-4-(2-methyl-1-oxo-1,2-dihydro-2,7-naphthyridin-4-yl)phenethyl)piperidin-4-yl)oxy)piperidine-1-carbonyl)phenyl)dihydropyrimidine-2,4(1H,3H)-dione] | 15.53 | 1
COc1cc(-c2cn(C)c(=O)c3cnccc23)c(OC)cc1CCN1CCC(OC2CCN(C(=O)c3ccc(Cl)c(N4CCC(=O)NC4=O)c3)CC2)CC1 [Compound A39, 1-(2-Chloro-5-(4-((1-(2,5-dimethoxy-4-(2-methyl-1-oxo-1,2-dihydro-2,7-naphthyridin-4-yl)phenethyl)piperidin-4-yl)oxy)piperidine-1-carbonyl)phenyl)dihydropyrimidine-2,4(1H,3H)-dione] | 16.72 | 21
COc1cc(-c2cn(C)c(=O)c3cnccc23)cc(OC)c1CCN1CCC(OC2CCN(C(=O)c3cccc(N4CCC(=O)NC4=O)c3)CC2)CC1 [Compound A40, 1-(3-(4-((1-(2,6-Dimethoxy-4-(2-methyl-1-oxo-1,2-dihydro-2,7-naphthyridin-4-yl)phenethyl)piperidin-4-yl)oxy)piperidine-1-carbonyl)phenyl)dihydropyrimidine-2,4(1H,3H)-dione] | 14.20 | 4
COc1cc(-c2cn(C)c(=O)c3cnccc23)c(OC)cc1CCN1CCC(OC2CCN(C(=O)c3ccc(OC)c(N4CCC(=O)NC4=O)c3)CC2)CC1 [Compound A41, 1-(5-(4-((1-(2,5-Dimethoxy-4-(2-methyl-1-oxo-1,2-dihydro-2,7-naphthyridin-4-yl)phenethyl)piperidin-4-yl)oxy)piperidine-1-carbonyl)-2-methoxyphenyl)dihydropyrimidine-2,4(1H,3H)-dione] | 13.54 | 60
COc1ccc(C(=O)N2CCC(OC3CCN(Cc4c(OC)cc(-c5cn(C)c(=O)c6cnccc56)cc4OC)CC3)CC2)cc1N1CCC(=O)NC1=O [Compound A42, 1-(5-(4-((1-(2,6-Dimethoxy-4-(2-methyl-1-oxo-1,2-dihydro-2,7-naphthyridin-4-yl)benzyl)piperidin-4-yl)oxy)piperidine-1-carbonyl)-2-methoxyphenyl)dihydropyrimidine-2,4(1H,3H)-dione] | 13.53 | 98
CCCn1cc(-c2cc(OC)c(CCN3CCC(OC4CCN(C(=O)c5ccc(Cl)c(N6CCC(=O)NC6=O)c5)CC4)CC3)c(OC)c2)cc(C)c1=O [Compound B1, 1-(2-Chloro-5-(4-((1-(2,6-dimethoxy-4-(5-methyl-6-oxo-1-propyl-1,6-dihydropyridin-3-yl)phenethyl)piperidin-4-yl)oxy)piperidine-1-carbonyl)phenyl)dihydropyrimidine-2,4(1H,3H)-dione] | 11.90 | 2
CCCn1cc(-c2cc(OC)c(CCN3CCC(OC4CCN(C(=O)c5ccc(Cl)c(N6CCC(=O)NC6=O)c5)CC4)CC3)c(OC)c2)c(C)c(C)c1=O [Compound B2, 1-(2-Chloro-5-(4-(1-(4-(4,5-dimethyl-6-oxo-1-propyl-1,6-dihydropyridin-3-yl)-2,6-dimethoxyphenethyl)piperidin-4-yloxy)piperidine-1-carbonyl)phenyl)dihydropyrimidine-2,4(1H,3H)-dione] | 13.73 | 2
CCCCn1cc(-c2cc(OC)c(CN3CCC(OC4CCN(C(=O)c5ccc(OC)c(N6CCC(=O)NC6=O)c5)CC4)CC3)cc2OC)c2ccncc2c1=O [Compound B3, 1-(5-(4-((1-(4-(2-butyl-1-oxo-1,2-dihydro-2,7-naphthyridin-4-yl)-2,5-dimethoxybenzyl)piperidin-4-yl)oxy)piperidine-1-carbonyl)-2-methoxyphenyl)dihydropyrimidine-2,4(1H,3H)-dione] | 10.95 | 27
CCCCn1cc(-c2cc(OC)c(CCN3CCC(OC4CCN(C(=O)c5ccc(Cl)c(N6CCC(=O)NC6=O)c5)CC4)CC3)c(OC)c2)c2ccncc2c1=O [Compound B4, 1-(5-(4-((1-(4-(2-butyl-1-oxo-1,2-dihydro-2,7-naphthyridin-4-yl)-2,6-dimethoxyphenethyl)piperidin-4-yl)oxy)piperidine-1-carbonyl)-2-chlorophenyl)dihydropyrimidine-2,4(1H,3H)-dione] | 14.82 | 3
CCCCn1cc(-c2ccc(OC3CCN(CC4CCN(C(=O)c5ccc(OC)c(N6CCC(=O)NC6=O)c5)CC4)CC3)c(OC)c2)c2ccncc2c1=O [Compound B5, 1-(5-(4-((4-(4-(2-butyl-1-oxo-1,2-dihydro-2,7-naphthyridin-4-yl)-2-methoxyphenoxy)piperidin-1-yl)methyl)piperidine-1-carbonyl)-2-methoxyphenyl)dihydropyrimidine-2,4(1H,3H)-dione] | 13.14 | 4
CCCCn1cc(-c2ccc(OC3CCN(CC4CCN(C(=O)c5ccc(Cl)c(N6CCC(=O)NC6=O)c5)CC4)CC3)c(OC)c2)c2ccncc2c1=O [Compound B6, 1-(5-(4-((4-(4-(2-butyl-1-oxo-1,2-dihydro-2,7-naphthyridin-4-yl)-2-methoxyphenoxy)piperidin-1-yl)methyl)piperidine-1-carbonyl)-2-chlorophenyl)dihydropyrimidine-2,4(1H,3H)-dione] | 16.75 | 1
CCCCn1cc(-c2cc(OC)c(OCC3CCN(CC4CCN(C(=O)c5ccc(OC)c(N6CCC(=O)NC6=O)c5)CC4)CC3)c(OC)c2)c2ccncc2c1=O [Compound B7, 1-(5-(4-((4-((4-(2-butyl-1-oxo-1,2-dihydro-2,7-naphthyridin-4-yl)-2,6-dimethoxyphenoxy)methyl)piperidin-1-yl)methyl)piperidine-1-carbonyl)-2-methoxyphenyl)dihydropyrimidine-2,4(1H,3H)-dione] | 17.54 | 7
CCCCn1cc(-c2cc(OC)c(OCC3CCN(CC4CCN(C(=O)c5ccc(Cl)c(N6CCC(=O)NC6=O)c5)CC4)CC3)c(OC)c2)c2ccncc2c1=O [Compound B8, 1-(5-(4-((4-((4-(2-butyl-1-oxo-1,2-dihydro-2,7-naphthyridin-4-yl)-2,6-dimethoxyphenoxy)methyl)piperidin-1-yl)methyl)piperidine-1-carbonyl)-2-chlorophenyl)dihydropyrimidine-2,4(1H,3H)-dione] | 17.89 | 3
CCCCn1cc(-c2cc(OC)c(OC3CCN(CC4CCN(C(=O)c5ccc(Cl)c(N6CCC(=O)NC6=O)c5)CC4)CC3)c(OC)c2)c2ccncc2c1=O [Compound B9, 1-(5-(4-((4-(4-(2-butyl-1-oxo-1,2-dihydro-2,7-naphthyridin-4-yl)-2,6-dimethoxyphenoxy)piperidin-1-yl)methyl)piperidine-1-carbonyl)-2-chlorophenyl)dihydropyrimidine-2,4(1H,3H)-dione] | 14.33 | 1
